Patent publication US20250304535A1, “KAT6 Inhibitors” (BeiGene Switzerland GmbH, priority 2024, published 2025)

How the values were obtained:
[1] = target: Recombinant human KAT6A protein (497-780) (Homo sapiens (Human), UniProt Q92794); experiment: KAT6A biochemical TR-FRET assay; details: histone H4 peptide 2000 nM, AcCoA 300 nM, enzyme 5 nM
Procedure: Enzymatic reactions of KAT6A and KAT6B were performed using Fluorescence Resonance Energy Transfer (TR-FRET) assay, which measures acetylation of a synthetic, biotinylated histone-H4 peptide by the KAT6A and KAT6B enzymes. Recombinant human KAT6A protein (497-780) were expressed in BL21 cell using an E. coli expression system. Recombinant human KAT6B protein (657-1069) was expressed in sf9 cell using a baculovirus expression system. […] Acetyl coenzyme A was purchased from Sigma-Aldrich (#A-2056).
Testing for the inhibition activities of various compounds disclosed herein was carried out at room temperature in assay buffer containing 100 mM Tris/HCl Ph7.8, 15 mM NaCl, 0.01% chicken egg white albumin, 1 mM DTT and 0.01% Tween-20. Compounds in DMSO were dispensed into wells of a black, 384-well plate (Corning 4514) using ECHO555 (Beckman). The final concentration ranges of the test compounds were 0.0625-1,000 nM, 0.625-10,000 nM, or 0.313-5,000 nM. Five μL of KAT6A or KAT6B enzyme solution were added to wells, and the plate was incubated for 1 hour at room temperature (rt). After incubation for 1 hour at rt, 5 μL H4 and AcCoA substrate solutions were added to the wells to initiate reaction, and the plate was incubated. After 2 hours reaction, 5 μL detection reagent were added to the wells, and the plate was incubated for 2 hours. After two hours incubation, detection reagent containing 5 nM Anti-histone H4 antibody (ABCAM #ab177790), 100 μM formic acid (sigma #06473-100ML), 0.1 test/μL streptavidin-XL665 (PerkinElmer #610SAXLG), 0.05 test/μL PAb anti-rabbit IgG-Eu (PerkinElmer μ61PARKLA) was added to the wells. TR-FRET was measured on a microplate reader (PHERAstar FSX, BMG labtech). […] In Table 6, I≤5 nM, 5 nM<II≤50 nM.

[2] = system: histone H3K23 acetylation in U-2 OS cells; experiment: Histone H3 lysine 23 acetylation assay in U-2 OS cells (high content analysis); format: cell-based; details: Homo sapiens, U2OS, 24 hrs exposure, H3K23ac level
Procedure: Assay B: Histone H3 lysine 23 Acetylation Assay
Compounds were tested for their capacity to suppress the histone H3K23 acetylation in the following high content analysis assay.
The cell line U-2 OS (ATCC HTB-96) was seeded at a density of 2000 cells per well in black 384 well cell culture/imaging microplates in 45 μl McCoy's 5A medium with […]. After overnight incubation in 37° C., 5% CO2 incubator, cells were then treated with a 9-point dilution series of compounds and a blank control group with medium containing 0.1% DMSO.
Following a 24 hrs exposure to the compounds, the cells were fixed with 4% immunohistochemical fixative for 20 mins at room temperature, washed with DPBS with 2% fetal bovine serum, and permed with Perm Buffer III for 30 min on ice, washed with DPBS with 2% fetal bovine serum. Then the cells were blocked with Odyssey blocking buffer containing 0.1% Tween 20. 20 ul Anti-Histone H3 (acetyl K23) antibody (Abcam, ab177275) in odyssey blocking buffer containing 0.1% Tween20 was added and incubated overnight at 4° C. After incubation, the cells were washed for 3 times and a secondary antibody Anti-rabbit IgG (H+L), F(ab′)2 Fragment (Alexa Fluor® 647 Conjugate) (CST, 4414S) were added into cells for one hour. The cells were washed and 1 ug/ml DAPI (Thermo, 62248) were added for 10 min. Then cells were washed and read on the PerkinElmer Operetta CLS high content analysis system. The nuclei were identified by DAPI and H3K23ac level was calculated from the Alexa Fluor 647 intensity in the nuclei. Inhibition rate of H3K23ac was calculated as the mean intensity of cells per well relative to blank controls on the same plate.

[3] = target: Recombinant human KAT6B protein (657-1069) (Homo sapiens (Human), UniProt Q8WYB5); experiment: KAT6B biochemical TR-FRET assay; details: histone H4 peptide 1000 nM, AcCoA 100 nM, enzyme 5 nM
Procedure: Enzymatic reactions of KAT6A and KAT6B were performed using Fluorescence Resonance Energy Transfer (TR-FRET) assay, which measures acetylation of a synthetic, biotinylated histone-H4 peptide by the KAT6A and KAT6B enzymes. Recombinant human KAT6A protein (497-780) were expressed in BL21 cell using an E. coli expression system. Recombinant human KAT6B protein (657-1069) was expressed in sf9 cell using a baculovirus expression system. Histone H4 peptide (SEQ ID NO: 1—[…]-GGK-Biotin), which was used as substrate, was synthesized by GL Biochem, Shanghai, China. Acetyl coenzyme A was purchased from Sigma-Aldrich (#A-2056).
Testing for the inhibition activities of various compounds disclosed herein was carried out at room temperature in assay buffer containing 100 mM Tris/HCl Ph7.8, 15 mM NaCl, 0.01% chicken egg white albumin, 1 mM DTT and 0.01% Tween-20. Compounds in DMSO were dispensed into wells of a black, 384-well plate (Corning 4514) using ECHO555 (Beckman). The final concentration ranges of the test compounds were 0.0625-1,000 nM, 0.625-10,000 nM, or 0.313-5,000 nM. Five μL of KAT6A or KAT6B enzyme solution were added to wells, and the plate was incubated for 1 hour at room temperature (rt). After incubation for 1 hour at rt, 5 μL H4 and AcCoA substrate solutions were added to the wells to initiate reaction, and the plate was incubated. After 2 hours reaction, 5 μL detection reagent were added to the wells, and the plate was incubated for 2 hours. After two hours incubation, detection reagent containing 5 nM Anti-histone H4 antibody (ABCAM #ab177790), 100 μM formic acid (sigma #06473-100ML), 0.1 test/μL streptavidin-XL665 (PerkinElmer #610SAXLG), 0.05 test/μL PAb anti-rabbit IgG-Eu (PerkinElmer μ61PARKLA) was added to the wells. TR-FRET was measured on a microplate reader (PHERAstar FSX, BMG labtech). The IC50s were calculated based on inhibition of enzyme activity in the presence of increasing concentrations of test compounds, and the results are shown in Table 6. In Table 6, I≤5 nM, 5 nM<II≤50 nM.

Sequence of Recombinant human KAT6A protein (497-780) (Q92794 497-780): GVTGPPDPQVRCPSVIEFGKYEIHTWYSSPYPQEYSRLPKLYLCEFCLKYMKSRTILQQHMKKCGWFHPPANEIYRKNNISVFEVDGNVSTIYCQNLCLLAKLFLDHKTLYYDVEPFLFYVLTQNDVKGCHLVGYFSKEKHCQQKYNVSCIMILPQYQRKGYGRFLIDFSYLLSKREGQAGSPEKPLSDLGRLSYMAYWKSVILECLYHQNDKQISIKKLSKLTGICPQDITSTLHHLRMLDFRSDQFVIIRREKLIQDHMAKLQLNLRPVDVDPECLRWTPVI
Sequence of Recombinant human KAT6B protein (657-1069) (Q8WYB5 657-1069): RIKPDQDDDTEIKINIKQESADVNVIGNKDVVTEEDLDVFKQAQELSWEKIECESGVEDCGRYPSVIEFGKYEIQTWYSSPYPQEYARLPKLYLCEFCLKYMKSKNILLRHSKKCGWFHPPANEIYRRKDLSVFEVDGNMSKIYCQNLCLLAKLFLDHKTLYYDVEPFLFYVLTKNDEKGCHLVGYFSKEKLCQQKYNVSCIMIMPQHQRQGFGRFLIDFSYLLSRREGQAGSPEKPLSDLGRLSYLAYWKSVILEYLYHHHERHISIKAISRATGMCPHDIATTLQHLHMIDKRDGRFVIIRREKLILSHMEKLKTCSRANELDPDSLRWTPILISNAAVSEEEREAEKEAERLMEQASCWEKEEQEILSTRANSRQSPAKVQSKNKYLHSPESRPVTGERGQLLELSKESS

For COc1cnc(C(C)(C)C)cc1S(=O)(=O)NC(=O)c1ccc(Cn2cccn2)c(OC)n1 [Example C72, 5-((1H-pyrazol-1-yl)methyl)-N-((2-(tert-butyl)-5-methoxypyridin-4-yl)sulfonyl)-6-methoxy-picolinamide], the IC50 [1] was ≤ 5 nM, the IC50 [2] was ≤ 10 nM and the IC50 [3] was ≤ 5 nM.

With COc1ccccc1S(=O)(=O)NC(=O)c1ccc(Cn2cccn2)c(OC)n1 [Example C68, 5-((1H-pyrazol-1-yl)methyl)-6-methoxy-N-((2-methoxyphenyl)sulfonyl) picolinamide] the IC50 [1] was 5 to 50 nM, the IC50 [2] was ≤ 10 nM and the IC50 [3] was ≤ 5 nM.

In the case of COc1ccc(C2(C)CCOCC2)cc1S(=O)(=O)NC(=O)c1ccc(Cn2cccn2)c(OC)n1 [Example C70, 5-((1H-pyrazol-1-yl)methyl)-6-methoxy-N-((2-methoxy-5-(4-methyltetrahydro-2H-pyran-4-yl)phenyl)sulfonyl) picolinamide], the IC50 [1] is reported as ≤ 5 nM, the IC50 [2] is reported as ≤ 10 nM and the IC50 [3] is reported as ≤ 5 nM.

COc1ccc(C(C)(C)C)cc1S(=O)(=O)NC(=O)c1ccc(Cn2cccn2)c(C2CC2)n1 [Example C8, 5-((1H-pyrazol-1-yl)methyl)-N-((5-(tert-butyl)-2-methoxyphenyl)sulfonyl)-6-cyclopropyl-picolinamide] was tested, and the IC50 [1] was ≤ 5 nM, the IC50 [2] was ≤ 10 nM and the IC50 [3] was ≤ 5 nM.

In the case of CCc1cc(C(=O)NS(=O)(=O)c2c(OC)ccc3c2OCC3(C)C)ccc1Cn1cccn1 [Example C51, 4-((1H-pyrazol-1-yl)methyl)-3-ethyl-N-((6-methoxy-3,3-dimethyl-2,3-dihydrobenzofuran-7-yl)sulfonyl)benzamide], the IC50 [1] is reported as ≤ 5 nM, the IC50 [2] is reported as ≤ 10 nM and the IC50 [3] is reported as ≤ 5 nM.

With C#Cc1cc(C(=O)NS(=O)(=O)c2cc(C(C)(C)C)ccc2OC)ccc1Cn1cccn1 [Example C15, 4-((1H-pyrazol-1-yl)methyl)-N-((5-(tert-butyl)-2-methoxyphenyl)sulfonyl)-3-ethynylbenzamide] the IC50 [1] was ≤ 5 nM, the IC50 [2] was ≤ 10 nM and the IC50 [3] was ≤ 5 nM.

For COc1ccc(C(C)(C)C)cc1S(=O)(=O)NC(=O)c1ccc(Cc2ccccn2)c(C)c1 [Example C29, N-((5-(tert-butyl)-2-methoxyphenyl)sulfonyl)-3-methyl-4-(pyridin-2-ylmethyl)benzamide], the IC50 [1] was ≤ 5 nM, the IC50 [2] was ≤ 10 nM and the IC50 [3] was ≤ 5 nM.

For COc1ccc(C(C)(C)C)cc1S(=O)(=O)NC(=O)c1ccc(Cn2cccn2)c(OC)n1 [Example C40, 5-((1H-pyrazol-1-yl)methyl)-N-((5-(tert-butyl)-2-methoxyphenyl)sulfonyl)-6-methoxypicolinamide], the IC50 [1] was ≤ 5 nM, the IC50 [2] was ≤ 10 nM and the IC50 [3] was ≤ 5 nM.

In the case of COc1ccc(C(C)(C)C)cc1S(=O)(=O)NC(=O)c1ccc(Cn2cccn2)c(C2CC2)c1 [Example C2, 4-((1H-pyrazol-1-yl)methyl)-N-((5-(tert-butyl)-2-methoxyphenyl)sulfonyl)-3-cyclopropylbenzamide], the IC50 [1] is reported as ≤ 5 nM, the IC50 [2] is reported as ≤ 10 nM and the IC50 [3] is reported as ≤ 5 nM.

With [2H]C([2H])([2H])Oc1ccc(C(C)(C)C)nc1S(=O)(=O)NC(=O)c1ccc(Cn2cccn2)c(OC)n1 [Example C66, 5-((1H-pyrazol-1-yl)methyl)-N-((6-(tert-butyl)-3-(methoxy-d3)pyridin-2-yl)sulfonyl)-6-methoxy-picolinamide] the IC50 [1] was ≤ 5 nM, the IC50 [2] was ≤ 10 nM and the IC50 [3] was ≤ 5 nM.

COc1ccc(C(C)(C)C)nc1S(=O)(=O)NC(=O)c1ccc(Cn2cccn2)c(C2COC2)c1 [Example C19, 4-((1H-pyrazol-1-yl)methyl)-N-((6-(tert-butyl)-3-methoxypyridin-2-yl)sulfonyl)-3-(oxetan-3-yl)benzamid] was tested, and the IC50 [1] was ≤ 5 nM, the IC50 [2] was 10 to 100 nM and the IC50 [3] was ≤ 5 nM.

COc1ccc(C(C)(C)C)cc1S(=O)(=O)NC(=O)c1cc(Br)c(Cn2cccn2)cc1F [Example C10, 4-((1H-pyrazol-1-yl)methyl)-5-bromo-N-((5-(tert-butyl)-2-methoxyphenyl)sulfonyl)-2-fluorobenzamide] was tested, and the IC50 [1] was ≤ 5 nM, the IC50 [2] was ≤ 10 nM and the IC50 [3] was ≤ 5 nM.

For COc1cc(C(=O)NS(=O)(=O)c2c(OC)ccc3c2OC(C)(C)C3)ccc1Cn1cccn1 [Example C45, 4-((1H-pyrazol-1-yl)methyl)-3-methoxy-N-((6-methoxy-2,2-dimethyl-2,3-dihydrobenzofuran-7-yl)sulfonyl)benzamide], the IC50 [1] was ≤ 5 nM, the IC50 [2] was ≤ 10 nM and the IC50 [3] was ≤ 5 nM.

In the case of COc1cc(C(=O)NS(=O)(=O)c2cc(C(C)(C)C)ccc2OC)ccc1Cn1cccn1 [Example C7, 4-((1H-pyrazol-1-yl)methyl)-N-((5-(tert-butyl)-2-methoxyphenyl)sulfonyl)-3-methoxybenzamide], the IC50 [1] is reported as ≤ 5 nM, the IC50 [2] is reported as ≤ 10 nM and the IC50 [3] is reported as ≤ 5 nM.

For C=Cc1cc(C(=O)NS(=O)(=O)c2c(OC)ccc3c2OCC3(C)C)ccc1Cn1cccn1 [Example C50, 4-((1H-pyrazol-1-yl)methyl)-N-((6-methoxy-3,3-dimethyl-2,3-dihydrobenzofuran-7-yl)sulfonyl)-3-vinylbenzamide], the IC50 [1] was ≤ 5 nM, the IC50 [2] was ≤ 10 nM and the IC50 [3] was ≤ 5 nM.

For C=Cc1cc(C(=O)NS(=O)(=O)c2nc(C(C)(C)C)ccc2OC)ccc1Cn1cccn1 [Example C16, 4-((1H-pyrazol-1-yl)methyl)-N-((6-(tert-butyl)-3-methoxypyridin-2-yl)sulfonyl)-3-vinylbenzamide], the IC50 [1] was ≤ 5 nM, the IC50 [2] was ≤ 10 nM and the IC50 [3] was ≤ 5 nM.

COc1ccc(C(C)(C)C)cc1S(=O)(=O)NC(=O)c1ccc(Cn2cccn2)c(-c2ccco2)c1 [Example C5, 4-((1H-pyrazol-1-yl)methyl)-N-((5-(tert-butyl)-2-methoxyphenyl)sulfonyl)-3-(furan-2-yl)benzamide] was tested, and the IC50 [1] was ≤ 5 nM, the IC50 [2] was ≤ 10 nM and the IC50 [3] was ≤ 5 nM.

With COc1ccc(C(C)(C)C)nc1S(=O)(=O)NC(=O)c1ccc(Cn2cccn2)c(Cl)c1 [Example C22, 4-((1H-pyrazol-1-yl)methyl)-N-((6-(tert-butyl)-3-methoxypyridin-2-yl)sulfonyl)-3-chlorobenzamide] the IC50 [1] was ≤ 5 nM, the IC50 [2] was ≤ 10 nM and the IC50 [3] was ≤ 5 nM.
